Among the data in a melting point compilation (Tetko et al.; mined from patent text by program, amines drawn as free bases though some values may be those of a salt) are melting point values, retold here.

Structures are written as SMILES.

On to `FC1(F)C(Oc2cc(Cl)c(Cl)cc2Cl)=C(Oc2cc(Cl)c(Cl)cc2Cl)C(F)(F)C1(F)F`, for which the melting point (usually the temperature, or range, at which the solid turns liquid) was 65 to 68 °C. `C=CCSC(=S)N1Cc2[nH]c3ccccc3c2CC1C(=O)O` (stereo not drawn) returned a melting point of 161 to 162 °C. Take `CSCC(=O)[C@H](Cc1ccccc1)NC(=O)[C@H](CC(C)C)NS(=O)(=O)c1ccccc1`: the melting point was 133 to 136 °C. Consider `O=S(=O)(c1cccs1)N(CCO)c1cccc2cc(-c3nccs3)[nH]c12`, for which the melting point was 170 to 171 °C.

As to `O=C(O)CC(Cn1cnc2c(=O)[nH]cnc21)C(=O)O` (stereo not drawn), the melting point is 130 to 135 °C.

In turn, `O=C(Nc1cccc(C(F)(F)F)c1)c1cccc2cc(O)ccc12` registered a melting point of 201 to 202 °C. `CCOC1=N[C@@H](CSCC)C(=O)N[C@@H]1Cc1ccccc1`: the melting point was 118 °C. Then `CCOC(C)(OCC)C(=O)c1c[nH]c2ncc(-c3cc(OC)c(OC)c(OC)c3)nc12`, with 198 to 201 °C; and `CCCCC(CC)COC(=O)C(C#N)=Cc1ccc(NC(C)=O)cc1` (stereo not drawn), with 119 °C.

The compound `CC(=O)c1ccc(-n2c(CCl)nc3ccccc3c2=O)cc1` gave a melting point of 180 to 181 °C. As for `CCCc1nc2c(N)nc(C)c(C)c2n1CCCO/N=C(\C)c1ccccc1`, the melting point fell in the range of 125 to 127 °C. On to `CC(C)(C)CC(C)(C)c1ccc(OCC(=O)Nc2ccc(Cl)c(Nc3cc(=O)n(-c4c(Cl)cc(Cl)cc4Cl)[nH]3)c2)cc1`, for which the melting point lay in the range of 126 to 128 °C.

Regarding `COc1c(Br)cc(Br)c2ccc(C=Cc3ccccc3)nc12`, the melting point is 150 to 152 °C. `O=C(COc1cccc2cccnc12)c1ccccc1` came in with a melting point of 124 to 125 °C. As to `CCN(CC)c1cc2cnnn2c(C)n1`, the melting point is 57 to 58 °C. Then `Cc1c(Br)c(Br)nn1C(C)C(=O)N(C)C(C)C` (stereo not drawn), with 95 to 96.5 °C; and `O=c1[nH]c(-c2ccccc2)cn1CCO`, with 203 to 205 °C. With `Cc1cccc(-n2c(CCl)nc3ccccc3c2=O)c1` the figure was 183 to 185 °C. For the compound `CC(C)(C)c1ccc([Si](C)(C)COc2cc(C(C)(C)C)c(O)c(C(C)(C)C)c2)cc1`, the melting point was in the range of 114 to 115 °C. With `COc1ccc(C(=O)N2CCC(Nc3nccc(-c4c(-c5ccc(F)cc5)nc5occn45)n3)CC2)cc1` the figure was 196 to 197 °C. `O=c1[nH]c2cc(-c3cn4ccccc4n3)ccc2s1`: the melting point was greater than 270 °C.

`O=C(N[C@@H](Cc1c[nH]cn1)C(=O)OCCc1cccs1)C(Cc1cccc2ccccc12)Cc1cccc2ccccc12` had a melting point of 203 to 206 °C.

Turning to `C=CCOC1CC2C3CCC4=CC(=O)CCC4(C)C3(F)C(O)CC2(C)C1(O)C(=O)CO` (stereo not drawn), the melting point lay in the range of 189 to 191 °C.

For `CCOC(=O)c1cn2c3c(cc(C)cc3c1=O)C1CCCCC12` (stereo not drawn), the melting point fell in the range of 107 to 109 °C. `Cc1cccc(NC(=O)NC2N=C(c3ccccc3F)c3ccccc3N(CCOC(=O)N3CC4CCC(CC4)C3)C2=O)c1` (racemic) had a melting point of 169 to 171 °C. With `CCOC(=O)c1cn2c3c(c(-c4cc(C)nc(C)c4)c(F)c(F)c3c1=O)OC[C@@H]2C`, the melting point was in the range of 295 to 297 °C. As for `CC(C)(C#N)C(O)(CCc1ccc(F)cc1)Cn1cncn1` (stereo not drawn), the melting point was in the range of 152 to 154 °C. Compound `COC(=O)C1CCC2(C)C(=CC(=O)C3C2CCC2(C)C(C(=O)OC)CCC32)C1` (stereo not drawn) displayed a melting point of 167 to 169 °C. `CCCCCCCc1nnc(-c2ccc(O)cc2)s1` yielded a melting point of 100 °C. As to `O=C1c2ccccc2C(=S)N1C1CCC(=S)NC1=S` (stereo not drawn), the melting point is 244 °C.

On to `COc1ccc(C2Cc3ccccc3C2=O)cc1` (stereo not drawn), for which the melting point was in the range of 83 to 85 °C.

In turn, `N#Cc1ccc(-c2ccc3cnc(Nc4ccc(N5CCOCC5)cc4)nn23)cn1` showed a melting point of 280 to 283 °C. Consider `Cc1nc2c(C)cc(Oc3cnc(N)nc3N)c(C(C)C)c2o1`, for which the melting point was greater than 300 °C. In turn, `O=c1[nH]c2ccccc2n1-c1ncnc2nn(C3CCCC3)cc12` returned a melting point of 236 to 240 °C.

For `CCN1CC=C(c2c[nH]c3ccc([N+](=O)[O-])cc23)CC1`, the melting point was in the range of 188 to 190 °C. In the case of `Cn1c(S)nc(-c2ccncc2)cc1=O`, the melting point lay within 250 to 252 °C.

`O=C(O)CC(NC(=O)c1ccccc1)c1ccccc1F` (stereo not drawn) yielded a melting point of 202 to 205 °C. Then `COc1ccc(-c2cc(=O)n(CC3CCCC3)nc2-c2ccc(OC)cc2)cc1`, with 130 to 131 °C; and `CON(c1ccc(SC)cc1[N+](=O)[O-])S(=O)(=O)c1ccc(C)cc1`, with 110 to 111 °C.

In turn, `CCOC(=O)c1cc(=O)c(C(=O)c2ccccc2)co1` came in with a melting point of 84 to 86 °C. `O=C1N=NC(Cc2ccc(OCCc3coc(-c4ccccc4)n3)cc2)O1` (stereo not drawn) had a melting point of 142 to 144 °C. With `Cc1ncc2cccc(CCCCCC(=O)O)n12` the figure was 170 to 173 °C; with `c1cnc2c(c1)N(c1ccc3[nH]cc(C4CCNCC4)c3c1)CN2`, 260 to 268 °C.

In the case of `CCCc1c(O)c(C(C)=O)cc2c(C)cc(C(=O)OCC)nc12`, the melting point lay in the range of 150 to 151 °C.

Take `O=CN(Cc1cccc2ccccc12)c1cccc(NC(=O)c2cc(Cl)cc(Cl)c2)c1`: the melting point lay in the range of 205 to 208 °C. For `O=C(O)CCc1cc(C=Nc2ccccc2O)c(O)c(C=Nc2ccccc2O)c1`, the melting point lay within 204 to 205 °C. In turn, `COc1cc(CCNC(=O)Cc2ccc(Br)cc2)cc(OC)c1` displayed a melting point of 86 to 88 °C. In the case of `COc1ccc(Nc2nc(N)c3[nH]c(C)cc3n2)cc1`, the melting point lay in the range of 161 to 163 °C. In turn, `C=CCc1c(C(=O)OCC)nc2ccccc2c1O` returned a melting point of 146 to 147 °C. `O=C(CSc1ccc(C2=NCC(c3cc(Cl)cc(Cl)c3)(C(F)(F)F)C2)cc1Cl)NCC(F)(F)F` (stereo not drawn) had a melting point of 189 °C.

On to `COc1ccc(C(=O)Nc2cccc(C(C)(C)CNC(C)=O)c2)cc1OC`, for which the melting point was in the range of 132 to 134 °C. Consider `Cn1nc(-c2c(F)cccc2Cl)nc1-c1ccc([N+](=O)[O-])cc1Cl`, for which the melting point lay in the range of 144 to 148 °C.

Compound `COc1ccc(S(=O)(=O)C2(CCCC#Cc3ccc(Cl)cc3)SC(=O)N(C)C2=O)cc1` (stereo not drawn) had a melting point of 113 to 115 °C. Turning to `OCCCc1ccc(Nc2ncc(-c3ccccc3)s2)nc1`, the melting point lay within 153 to 154 °C.

`C/C(=C\c1ccc(C#N)cc1)c1ccc2c(c1)C(C)(C)C=CC2(C)C`: the melting point lay in the range of 140 to 142 °C. The compound `Cn1c(C(F)(F)F)ccc(-c2ccc(F)cc2F)c1=O` gave a melting point of 123 to 124 °C. Then `N#C/C=C\c1ccccc1C(=O)Cl`, with 72 to 74 °C; and `COCCCCC(=O)c1cc(C(=O)O)c2cc(Cc3ccc(F)cc3)cnc2c1O`, with 216 to 218 °C; and `O=C1C=C(CC2CCCC(C(F)(F)F)C2)C(=O)c2ccccc21` (stereo not drawn), with 65 °C. `CC(C)C(/C=C/C(=O)O)=C(c1ccc(F)cc1)c1ccc(F)cc1` came in with a melting point of 225 to 230 °C. Turning to `COc1ccnc(CCc2nc3cc(-c4ccc(S(=O)(=O)N5CCN(c6ccccc6)CC5)cc4)cnc3[nH]2)c1`, the melting point was in the range of 218 to 220 °C. For the compound `CC(C)Cc1ccc(CCOC(=O)c2cc(O)c3c(c2)C(=O)c2cccc(O)c2C3=O)cc1`, the melting point fell in the range of 117 to 121 °C. Then `O=c1nc(NCc2ccccc2)n2c3c1cnn3C(c1cccc(C(F)(F)F)c1)=CC2`, with 220 to 224 °C.
